{"source": "patent US12678438B2", "about": "“Treatment of cancer with CDK inhibitors” (THE TRUSTEES OF THE UNIVERSITY OF PENNSYLVANIA, priority 2019, dated 2026)", "format_in_all_cases": "cell-based, human", "key": {"[1]": {"system": "LNCaP cells", "experiment": "RNA-seq gene expression profiling", "settings": "100 nM THZ1, 24 h", "experimental": "(§1) RNA-seq libraries were constructed using the TruSeq sample Prep Kit V2 (Illumina) according to the manufacturer's instructions. Briefly, 1 μg of purified RNA was poly-A selected and fragmented with fragmentation enzyme. After first and second strand synthesis from a template of poly-A selected/fragmented RNA, other procedures from end-repair to PCR amplification were performed according to the instructions given in the protocol. Libraries were purified and validated for appropriate size on a 2100 Bioanalyzer DNA 1000 chip (Agilent Technologies, Inc.). The DNA library was quantitated using Qubit and normalized to 4 nM prior to pooling. Libraries were pooled in an equimolar fashion and diluted to a final concentration of 1.8 pM. Library pools were clustered and run on Nextseq500 platform (Illumina Inc.) with single-end reads of 75 bases.\n(§2) Single-end sequencing reads were demultiplexed using Illumina bcl2fastq, quality checked using FASTQC (bioinformatics.babraham ac uk/projects/fastqc), and aligned to the GRCh37 (release 27) genome using the STAR v2.5.1 aligner, with default settings. The read statistics generated by STAR v2.5.1 was used to ensure that the aligned reads in all samples were over 90% of the total reads. The transcripts were assembled using cufflinks and the count and FPKM tables were computed using cuffnorm. Principal component analysis on the FPKM values was used to cluster the samples for further quality check.\n(§3) Genes differentially expressed between any two sets of treatment were determined using DESeq2 (bioconductor.org/packages/release/bioc/html/DESeq.html), a statistical tool that employs shrinkage estimates to compute fold changes. In all our calculations, the raw RNA-seq read counts from biological duplicates, for each treatment condition, was used as the input for DESeq2."}, "[2]": {"system": "VCaP cells", "experiment": "RNA-seq gene expression profiling", "settings": "100 nM THZ1, 24 h", "experimental": "as §1, §2, §3"}, "[3]": {"system": "DU145 cells", "experiment": "RNA-seq gene expression profiling", "settings": "DU145, 100 nM THZ1, 24 h", "experimental": "as §1, §2, §3"}, "[4]": {"system": "p-MED1 (p-T1457 MED1)", "experiment": "Immunoblot of p-MED1 in AR-positive PCa cell lines (VCaP, LNCaP, 22RV1)", "experimental": "Cell lysates were prepared with RIPA buffer (Boston Bioproducts, BP-115DG)-10 mM Tris-HCl pH 7.5, 1 mM EDTA, 400 mM NaCl, 0.5% NP-40 and 1 mM DTT, supplemented with protease inhibitor cocktail (Pierce, A32965) and phosphatase inhibitor (Thermo, 1861280). For immunoblotting 200 μg total protein extract was boiled in sample buffer and 15-25 μg aliquots were separated by SDS-PAGE and transferred onto Polyvinylidene Difluoride membrane (GE Healthcare, IPVH00010). The membrane was incubated for one hour in blocking buffer [Tris-buffered saline, 0.1% Tween (TBS-T), 5% nonfat dry milk followed by overnight incubation on a rocker at 4° C. with the primary antibody. Following a wash with TBS-T, the blot was incubated with horseradish peroxidase-conjugated secondary antibody for 2 hrs on a rocker at room temperature. The blots were washed again and signals were visualized using enhanced chemiluminescence system as per manufacturer's protocol (GE Healthcare) or Kwik Quant Imager (Kindle Biosciences). Primary antibodies used in the immunoblotting (IB), immunoprecipitation (IP), and Chromatin Immunoprecipitation sequencing (ChIP-seq) assays are as follows: AR_IP, IB, ChIP-Seq (Millipore, 06-680); pS81-AR_IB (Millipore, 07-1375-EMD); RNA Pol II_IP, IB (Abcam, ab5408); ERG_IB (Abcam, a92513); PSA_IB (Dako, A0562); H3-acetyl K27_IP, IB, ChIP Seq (Abcam, ab32104) cPARP_IB (Cell Signaling Technology, 9541s); Cleaved caspase-3_IB (Cell Signaling Technology, 9664t); CDK7_IP, IB (Cell Signaling Technology, 2916s); CDK9_IP, IB (Cell Signaling Technology, 2316s); CDK12_IB (Cell Signaling Technology, 11973S); CDK13_IB (Sigma Cat. #ABE1860); Cyclin H_IB (Cell Signaling Technology, 2927T); HA_IP, IB (Cell Signaling Technology, 2367s); ERK1/2_IP, IB (Cell Signaling Technology, 9107s); phospho-ERK1/2_IB (Cell Signaling Technology, 9101s); phospho-Threonine_IB (Cell Signaling Technology, 9381s); PP2A alpha_IB (Abcam, ab32104); phospho-MED1_IB (Abcam, ab60950); Anti-GST_IB (Cell Signaling Technology, 2624); Anti-AKT_IB (Cell Signaling Technology, 9272); Anti-phosphoAKT_IB(Cell Signaling Technology, 4060); Anti-phospho-AR (Ser-515) _IB (Abeam, ab128250); Anti-RNA Pol 'LIB (Abeam, ab5408); Anti-phospho-pol II (Ser-5)_IB (Abeam, ab ab5095); Anti-phospho-CDK7 (Tlu-170) _IB (Millipore, ABS567); MED1_IP, IB, ChIP Seq (Bethyl, abA300-793A), Ki67_IHC (Cell Signaling Technology, 9661), and GAPDH (14C10), IB (Cell Signaling Technology, 3683s) for loading control."}}}
{"smiles": "CN(C)C/C=C/C(=O)Nc1ccc(C(=O)Nc2cccc(Nc3ncc(Cl)c(-c4c[nH]c5ccccc45)n3)c2)cc1", "note": "[THZ1]", "values": [{"measurement": "genes down (RNA-seq)", "setting": "[1]", "result": 1695}, {"measurement": "genes up (RNA-seq)", "setting": "[1]", "result": 2612}, {"measurement": "genes down (RNA-seq)", "setting": "[2]", "result": 1203}, {"measurement": "genes up (RNA-seq)", "setting": "[2]", "result": 1325}, {"measurement": "genes down (RNA-seq)", "setting": "[3]", "result": 190}, {"measurement": "genes up (RNA-seq)", "setting": "[3]", "result": 191}, {"measurement": "phosphorylation at Ser5 of RNA Pol II", "setting": "[4]; VCaP and LNCaP, dose and time course", "result": "reduced phosphorylation at Ser5 of RNA Poll"}, {"measurement": "p-MED1 levels, dose and time course", "setting": "[4]; VCaP and LNCaP, standard growth conditions", "result": "dose- and time-dependent decrease in p-MED1 levels"}, {"measurement": "p-MED1 levels", "setting": "[4]; VCaP, LNCaP, 22RV1, standard culture conditions, 24 h (THZ1 and LDC also with DHT stimulation)", "result": "reduced p-MED1 levels"}]}
